According to US20090149536A1, “4-OXO-(ISO)TRETINOIN FOR THE TOPICAL TREATMENT OF SEVERE DERMATOLOGICAL DISORDERS” (priority 2005, published 2009):
Where two headings read alike, the source gives them in different places. Values belong to the molecule of their own block, whether it stands above or below them.

Columns and labels:
[1] = in vivo
From the text: Suitable dosages are described herein below and can be determined by a doctor based on usual parameters like e.g. the weight and age of the patient, and the current status of the disease.

[2] = tested on: severe acne on back or chest; conditions: 2 g cream, 0.5% 4-Oxotretinoin or up to 1% 4-Oxo-Isotretinoin, topical on back, 4 weeks minimum; Leeds grade 5 to 8
From the text: Fifteen male patients aged between 18 and 65 with severe acne on back or chest rated a grade of 5 to 8 according to the Leeds revised acne grading system (Journal of Dermatological Treatment (1989) 9, 215-220) are enrolled in a pilot study.
After completion of the treatment, the grade of the acne in the designated treatment area is once more determined and compared with the surrounding area of the skin.

lipogenesis in epidermis = experiment: study of lipogenesis in skin biopsies (14C-Dextrose integrated in epidermis lipids); type: in vivo, Fuzzy rats
Protocol: At the end of the treatment, animals were anaesthetized with Pentobarbital 70 mg/kg by IP route. For each rat, two biopsies of 3-mm of dorsal skin per treated region with test substances were collected. Each biopsy was weighed. Rats were sacrificed by inhalation of CO2.
The biopsies (from 175 to 466 mg) were incubated in 1 ml of KRB in presence of 5 μCi D-[U-^14C]-Dextrose/ml at 37° C., 5% CO2 for 3 h.
After incubation, biopsies were rinsed 3 times with 3 ml of KRB. Dermis and epidermis were separated according to method described by Levang A. K. et al..
So, skin biopsies were soaked in water at 60° C. for 45 s. The skin was then removed and blotted dry and pinned with the dermal skin side down. The epidermis and dermis were separated by scrapping and epidermis was weighted.
Each fraction (100 mg) epidermis was cut into small fragments by using scalpels. Fragments were homogenized with chloroform:methanol [(2:1; v:v), Ref. C2432, batch No. 055K0070, Sigma, France: Ref M3641-1L, batch No. 104K3641, Sigma, France] according to the ratio 50 mg of tissue/ml of chloroform:methanol (2:1; v:v) with Potter-Elvehjem type of homogenizer (Ref. 48780, Dutscher, France).
Then, the mixture was washed with 0.2 volume of water. Two phases were separated by centrifugation during 20 min at 800 g.
The rate of lipid extraction was calculated as following: • R=(dpm[4-14C]Cholesterol after extraction)/dpm[4-14C]Cholesterol before extraction×100
The lipogenesis was evaluated as the number of dpm/100 mg tissue. • Lipogenesis=cpm×R×AS (D-[U-^14C]-Dextrose)
At the end of treatment (D25), rats were anaesthetized, skin biopsies were collected and lipogenesis was assessed. Briefly, biopsies were incubated with ^14C-Dextrose in Krebs-Ringer buffer for 3 h at 37° C., 5% CO2. After separation of dermis and epidermis, total lipids were extracted from epidermis. Radioactivity was counted using a β-counter.

sebaceous gland size = experiment: study of sebaceous gland size in skin biopsies (histology); type: in vivo, Fuzzy rats; conditions: D25
Protocol: The other biopsies were transferred in fixative solution of 4% Paraformaldehyde Fixative (PAF; Ref. 1.04003.5000, Merck, France) solution for further paraffin-embedding and sebaceous gland size analysis.
The size of sebaceous gland was evaluated by histological study of biopsies.
Biopsies fixed in PAF 4% were paraffin-embedded by the ASP 300 (Leica) automat according to the following procedure:
Histological sections of biopsies were realized (5 sections/biopsy).
Each one was colored by Hemalun/Eosin/Safran OTTIX coloration method according to the following protocol:
A microscopic observation by using a CKX41 light microscope (Olympus, France) was performed. Each sebaceous gland within 1 section/biopsy was numerized with a digital camera (Pwershot A80, Canon) and was measured by using ImageJ software 1.32j.
Each sebaceous gland within 1 section/biopsy was numerized with a digital camera (Pwershot A80, Canon) and was measured by using ImageJ software 1.32j. The mean of gland size was calculated for each group.
At the end of treatment (D25; Oct. 13, 2006), rats were anaesthetized, skin biopsies were collected and embedded in paraffin before being stained by an hematoxylin/eosin solution. Biopsies were then observed and numerized by using a microscope. All sebaceous glands within a biopsy were measured.

skin [3] = tested on: skin
From the text: Observations and examinations included clinical monitoring of skin reaction and histopathological examination of excised skin specimen at study end.

[4] = topical 1.5% 4-oxo-tretinoin or 2% 4-oxo-isotretinoin, n=5 per compound, serial samples
sebum excretion rate = conditions: cited from earlier work
skin [5] = conditions: in human, applied topically as cream; cited from earlier work
hairless ("fuzzy") rats = conditions: nontoxic dosages (no body weight loss), cited from earlier work
hairless mice = conditions: nontoxic dosages (no body weight loss); cited from earlier work
severe acne = conditions: oral; cited from earlier work
[6] = tested on: sebaceous gland size and sebum production; conditions: topical versus oral; cited from earlier work
[7] = tested on: dermal lipogenese and sebum production; conditions: topical; cited from earlier work
[8] = 0.1% topical, 0.025 mg/2 cm^2, (Q1DX5)×4 weeks, D25
[9] = 0.5% topical, 0.125 mg/2 cm^2, (Q1DX5)×4 weeks, D25
[10] = 0.1% topical, 0.025 mg/2 cm^2, (Q1DX5)×4 weeks
[11] = 10 mg/kg PO, (Q1DX5)×4 weeks, D25
[12] = 0.2% topical, 0.050 mg/2 cm^2, (Q1DX5)×4 weeks, D25

endogenous plasma level [1]: about 4.85±3.89 ng/mL
SMILES: CC1=C(/C=C/C(C)=C/C=C/C(C)=C\C(=O)O)C(C)(C)CCC1=O [4-oxo-isotretinoin, 4-oxo-13-cis-retinoic acid]
clinical rating of the acne in the treated area compared with untreated skin [2]: reduces the clinical rating of the acne in the treated area significantly
Mean DPM ± SD, Epidermis (100 mg) (lipogenesis in epidermis; [8]): 5499 ± 2599 DPM
Mean pmole 14C-dextrose ± SD integrated in 100 mg of tissue (epidermis) (lipogenesis in epidermis; [8]): 6.95±3.31 pmole of 14C-Dextrose/100 mg
lipogenesis in epidermis, percent of control group (lipogenesis in epidermis; [8]): 71%
Mean pmole 14C-dextrose ± SD integrated in 100 mg of tissue (epidermis) (lipogenesis in epidermis; 0.1% topical, 0.025 mg/2 cm^2, (Q1DX5)×4 weeks, D25, listed as 4-Oxo-isotretinoin): 6.95 ± 3.31 pmole of 14C-Dextrose/100 mg
Mean DPM ± SD, Epidermis (100 mg) (lipogenesis in epidermis; [9]): 6524 ± 1792 DPM
Mean pmole 14C-dextrose ± SD integrated in 100 mg of tissue (epidermis) (lipogenesis in epidermis; [9]): 8.25±2.28 pmole of 14C-Dextrose/100 mg
lipogenesis in epidermis, percent of control group (lipogenesis in epidermis; [9]): 84%
Mean pmole 14C-dextrose ± SD integrated in 100 mg of tissue (epidermis) (lipogenesis in epidermis; 0.5% topical, 0.125 mg/2 cm^2, (Q1DX5)×4 weeks, D25, listed as 4-Oxo-isotretinoin): 8.25 ± 2.28 pmole of 14C-Dextrose/100 mg
mean sebaceous gland size, Mean ± SD (sebaceous gland size; [10]): 24988±15931 pixel^2
sebaceous gland size, percent of control group (sebaceous gland size; [10]): (82%)
mean sebaceous gland size, Mean ± SD (sebaceous gland size; 0.1% topical, 0.025 mg/2 cm^2, (Q1DX5)×4 weeks, listed as 4-Oxo-isotretinoin): 24998 ± 15931 pixel^2
skin irritation (clinical monitoring of skin reaction) (skin [3]; any concentration (0.1, 0.5, 1 or 2%), once daily, 5 days per week, 4 weeks, acetone/ethanol (1:1)): No signs of skin irritation
inter-conversion of the 4-oxo isomers: skin and strip levels of both isomers [4]: skin exposure to both 4-oxo-isotretinoin and 4-oxo-tretinoin could be demonstrated
sebum excretion rate (sebum excretion rate; applied orally): reduces the sebum excretion rate
pharmacological activity relative to parent drug isotretinoin (sebum excretion rate; in vivo): only half as active pharmacologically

SMILES: CC1=C(/C=C/C(C)=C/C=C/C(C)=C\C(=O)O)C(C)(C)CCC1 [13-cis-RA, 13-cis retinoic acid, reference compound]
Mean DPM ± SD, Epidermis (100 mg) (lipogenesis in epidermis; [11]): 5188 ± 1875 DPM
Mean pmole 14C-dextrose ± SD integrated in 100 mg of tissue (epidermis) (lipogenesis in epidermis; [11]): 6.55±2.38 pmole of 14C-Dextrose/100 mg
change of lipogenesis in epidermis versus vehicle group (lipogenesis in epidermis; 10 mg/kg PO, (Q1DX5)×4 weeks, p<0.05): −33%
activity at 10 mg/kg (lipogenesis in epidermis; Rattus norvegicus, 672 h, 10 mg/kg PO, (Q1DX5)×4 weeks, D25, read-out: lipogenesis in epidermis, percent of control group): 67%
mean sebaceous gland size, Mean ± SD (sebaceous gland size; 10 mg/kg PO, (Q1DX5)×4 weeks): 25493±17065 pixel^2
activity at 10 mg/kg (sebaceous gland size; Rattus norvegicus, 672 h, 10 mg/kg PO, (Q1DX5)×4 weeks, read-out: sebaceous gland size, percent of control group): 83.8%
strength of topical cream that showed local irritation (skin [5]): 0.1%
sebosuppressive effect after topical administration (hairless ("fuzzy") rats; listed as 13-cis retinoic acid): no detectable sebosuppressive effects
sebosuppressive effect after topical administration (hairless ("fuzzy") rats; listed as 13-cis-retinoic acid): substantially no detectable sebosuppressive activity
sebosuppressive effect after topical administration (hairless mice): no detectable sebosuppressive effects
patients with severe acne reaching long-term remission (severe acne): 80%
reduction of effectiveness in reducing sebaceous gland size and suppressing sebum production, topical compared to oral administration [6]: up to 90%
influence on the dermal lipogenese and sebum production [7]: Neither topical tretinoin nor topical isotretinoin have been found to have an influence

endogenous plasma level [1]: about 9.88±7.57 ng/mL
SMILES: CC1=C(/C=C/C(C)=C/C=C/C(C)=C/C(=O)O)C(C)(C)CCC1=O [4-oxo-tretinoin, 4-oxo-all-trans-retinoic acid]
clinical rating of the acne in the treated area compared with untreated skin [2]: reduces the clinical rating of the acne in the treated area significantly
Mean DPM ± SD, Epidermis (100 mg) (lipogenesis in epidermis; [8]): 7024 ± 1970 DPM
Mean pmole 14C-dextrose ± SD integrated in 100 mg of tissue (epidermis) (lipogenesis in epidermis; [8]): 9.10±5.23 pmole of 14C-Dextrose/100 mg
lipogenesis in epidermis, percent of control group (lipogenesis in epidermis; [8]): 91%
Mean pmole 14C-dextrose ± SD integrated in 100 mg of tissue (epidermis) (lipogenesis in epidermis; 0.1% topical, 0.025 mg/2 cm^2, (Q1DX5)×4 weeks, D25, listed as 4-Oxo-tretinoin): 8.89 ± 2.51 pmole of 14C-Dextrose/100 mg
Mean DPM ± SD, Epidermis (100 mg) (lipogenesis in epidermis; [12]): 4993 ± 2219 DPM
Mean pmole 14C-dextrose ± SD integrated in 100 mg of tissue (epidermis) (lipogenesis in epidermis; [12]): 6.30±2.80 pmole of 14C-Dextrose/100 mg
lipogenesis in epidermis, percent of control group (lipogenesis in epidermis; [12]): 64%
Mean pmole 14C-dextrose ± SD integrated in 100 mg of tissue (epidermis) (lipogenesis in epidermis; 0.2% topical, 0.050 mg/2 cm^2, (Q1DX5)×4 weeks, D25, listed as 4-Oxo-tretinoin): 6.30 ± 2.80 pmole of 14C-Dextrose/100 mg
histopathological examination of treated skin areas (skin [3]; concentration-dependent, once daily, 5 days per week, 4 weeks): concentration-dependent hyperkeratosis, acanthosis and hypertrophy/hyperplasia of sebaceous glands
skin irritation (clinical: reddening (erythema) and occasional scaling) (skin [3]; concentrations ≧0.5% (tested 0.1 to 1.5%), once daily, 5 days per week, 4 weeks): dose-dependent slight to moderate skin irritation
histopathological examination of treated skin areas: necrosis (skin [3]; concentrations ≧1%): occasional necrosis
inter-conversion of the 4-oxo isomers: skin and strip levels of both isomers [4]: skin exposure to both 4-oxo-isotretinoin and 4-oxo-tretinoin could be demonstrated

SMILES: CC1=C(/C=C/C(C)=C/C=C/C(C)=C/C(=O)O)C(C)(C)CCC1 [tretinoin, all-trans retinoic acid]
strength of topical cream that showed local irritation (skin [5]): 0.05%
influence on the dermal lipogenese and sebum production [7]: Neither topical tretinoin nor topical isotretinoin have been found to have an influence
